{"source": "ChEMBL document CHEMBL3233001", "about": "“Pharmacophoric modifications lead to superpotent αvβ3 integrin ligands with suppressed α5β1 activity” (J Med Chem, 2014)", "type_in_all_cases": "protein-complex assay", "key": {"Integrin alpha-V/beta-3": {"molecular_target": "Integrin alpha-V/beta-3 (Homo sapiens, UniProt P05106+P06756)", "test": "Inhibition of vitronectin binding to human alphavbeta3 integrin receptor after 1 hr by competitive solid-phase binding ELISA"}, "Integrin alpha-5/beta-1": {"molecular_target": "Integrin alpha-5/beta-1 (Homo sapiens, UniProt P05556+P08648)", "test": "Inhibition of fibronectin binding to human alpha5beta1 integrin receptor after 1 hr by competitive solid-phase binding ELISA"}, "[1]": {"molecular_target": "Integrin alpha-IIb/beta-3 (Homo sapiens, UniProt P05106+P08514)", "test": "Inhibition of fibrinogen binding to alpha2bbeta3 integrin receptor (unknown origin) after 1 hr by competitive solid-phase binding ELISA"}, "Integrin alpha-V/beta-5": {"molecular_target": "Integrin alpha-V/beta-5 (Homo sapiens, UniProt P06756+P18084)", "test": "Inhibition of vitronectin binding to alphavbeta5 integrin receptor (unknown origin) after 1 hr by competitive solid-phase binding ELISA"}, "Integrin alpha-V/beta-6": {"molecular_target": "Integrin alpha-V/beta-6 (Homo sapiens, UniProt P06756+P18564)", "test": "Inhibition of LAP binding to human alphavbeta6 integrin receptor after 1 hr by competitive solid-phase binding ELISA"}}}
{"smiles": "COc1ccnc(NCCCOc2ccc(C[C@@H](CC(=O)O)NC(=O)c3ccc(F)cc3)cc2)c1", "values": [{"measurement": "IC50", "setting": "Integrin alpha-V/beta-3", "value": 1.6, "unit": "nM"}, {"measurement": "IC50", "setting": "Integrin alpha-5/beta-1", "value": 64.2, "unit": "nM"}]}
{"smiles": "COc1ccnc(NCCCOc2ccc(C[C@@H](CC(=O)NO)NC(=O)c3ccc(OC(C)C)cc3)cc2)c1", "values": [{"measurement": "IC50", "setting": "Integrin alpha-V/beta-3", "value": 638, "unit": "nM"}, {"measurement": "IC50", "setting": "Integrin alpha-5/beta-1", "value": "> 10000", "unit": "nM"}]}
{"smiles": "Cc1cccc(NCCCOc2ccc(C[C@@H](CC(=O)O)NC(=O)c3ccccc3)cc2)n1", "values": [{"measurement": "IC50", "setting": "Integrin alpha-V/beta-3", "value": 110, "unit": "nM"}, {"measurement": "IC50", "setting": "Integrin alpha-5/beta-1", "value": "> 10000", "unit": "nM"}]}
{"smiles": "COc1ccnc(NCCCOc2ccc(C[C@@H](CC(=O)O)NC(=O)c3ccc(OC(C)C)cc3)cc2)c1", "values": [{"measurement": "IC50", "setting": "Integrin alpha-V/beta-3", "value": 0.86, "unit": "nM"}, {"measurement": "IC50", "setting": "Integrin alpha-5/beta-1", "value": 126, "unit": "nM"}, {"measurement": "IC50", "setting": "[1]", "value": "> 10000", "unit": "nM"}, {"measurement": "IC50", "setting": "Integrin alpha-V/beta-5", "value": 227, "unit": "nM"}, {"measurement": "IC50", "setting": "Integrin alpha-V/beta-6", "value": 20, "unit": "nM"}]}
{"smiles": "COc1ccnc(NCCCOc2ccc(C[C@@H](CC(=O)NO)NS(=O)(=O)c3ccc(C)cc3)cc2)c1", "values": [{"measurement": "IC50", "setting": "Integrin alpha-V/beta-3", "value": 75.1, "unit": "nM"}, {"measurement": "IC50", "setting": "Integrin alpha-5/beta-1", "value": "> 10000", "unit": "nM"}]}
{"smiles": "COc1ccnc(NCCCOc2ccc(C[C@@H](CC(=O)O)NS(=O)(=O)c3ccc(C)cc3)cc2)c1", "values": [{"measurement": "IC50", "setting": "Integrin alpha-V/beta-3", "value": 0.65, "unit": "nM"}, {"measurement": "IC50", "setting": "Integrin alpha-5/beta-1", "value": 108, "unit": "nM"}, {"measurement": "IC50", "setting": "[1]", "value": "> 10000", "unit": "nM"}]}
